# Data taken from US12552829B2, “Compositions and methods for treating CNS disorders” (SAGE THERAPEUTICS, INC., priority 2019, dated 2026).
# Biological target: [35S]-TBPS binding, rat brain cortical membranes (GABAA receptor)
# Assay: Steroid inhibition of [35S]-TBPS binding
# Details: 3 nM [35S]-TBPS, in the presence of 5 mM GABA, 90 min at room temp
# Method: [^35S]-t-Butylbicyclophosphorothionate (TBPS) binding assays using rat brain cortical membranes in the presence of 5 mM GABA has been described (Gee et al, J. Pharmacol. Exp. Ther. 1987, 241, 346-353; Hawkinson et al, Mol. Pharmacol. 1994, 46, 977-985; Lewin, A. H et al., Mol. Pharmacol. 1989, 35, 189-194).
# Briefly, cortices are rapidly removed following decapitation of carbon dioxide-anesthetized Sprague-Dawley rats (200-250 g). The cortices are homogenized in 10 volumes of ice-cold 0.32 M sucrose using a glass/teflon homogenizer and centrifuged at 1500×g for 10 min at 4° C. The resultant supernatants are centrifuged at 10,000×g for 20 min at 4° C. to obtain the P2 pellets. The P2 pellets are resuspended in 200 mM NaCl/50 mM Na-K phosphate pH 7.4 buffer and centrifuged at 10,000×g for 10 min at 4° C. This washing procedure is repeated twice and the pellets are resuspended in 10 volumes of buffer. Aliquots ([…]) of the membrane suspensions are incubated with 3 nM [^35S]-TBPS and […] aliquots of test drug dissolved in dimethyl sulfoxide (DMSO) (final 0.5%) in the presence of 5 mM GABA. The incubation is brought to a final volume of 1.0 mL with buffer. Nonspecific binding is determined in the presence of […] and ranged from 15 to 25%. Following a 90 min incubation at room temp, the assays are terminated by filtration through glass fiber filters (Schleicher and Schuell No. 32) using a cell harvester (Brandel) and rinsed three times with ice-cold buffer. Filter bound radioactivity is measured by liquid scintillation spectrometry. Non-linear curve fitting of the overall data for each drug averaged for each concentration is done using Prism (GraphPad). […] The concentration of test compound producing 50% inhibition (IC50) of specific binding and the maximal extent of inhibition (Imax) are determined for the individual experiments with the same model used for the overall data and then the means±SEM.s of the individual experiments are calculated.
# Various compounds are or can be screened to determine their potential as modulators of [^35S]-TBPS binding in vitro. These assays are or can be performed in accordance with the above.
row,Structure (SMILES),IC50 [nM]
1,"C[C@]1(O)CCC2=CC[C@H]3[C@@H]4CC[C@H]([C@@](C)(O)Cn5cc(C#N)cn5)[C@@]4(C)CC[C@@H]3[C@@]2(C)CC1 [Example 19, 1-((R)-2-hydroxy-2-((1S,3aS,3bS,8S,10aR,10bS,12aS)-8-hydroxy-8,10a,12a-trimethyl-1,2,3,3a,3b,4,6,7,8,9,10,10a,10b,11,12,12a-hexadecahydrocyclohepta[a]cyclopenta[f]naphthalen-1-yl)propyl)-1H-pyrazole-4-carbonitrile]",< 100
2,"C[C@H]1[C@H]2[C@@H]3CC[C@@H]4C[C@](C)(O)CC[C@@H]4[C@H]3CC[C@]2(C)[C@@H]([C@](C)(O)Cn2cc(C#N)cn2)C[C@@H]1C [Example 26, 1-((S)-2-hydroxy-2-((1S,3S,4R,4aS,4bR,6aR,8R,10aS,10bR,12aS)-8-hydroxy-3,4,8,12a-tetramethyloctadecahydrochrysen-1-yl)propyl)-1H-pyrazole-4-carbonitrile]",< 100
3,"CC[C@@]1(O)CC[C@H]2[C@@H](CC[C@@H]3[C@@H]2CC[C@@]2(C)[C@H]3CCC[C@@H]2[C@@](C)(O)Cn2cc(C#N)cn2)C1 [Example 11, 1-((R)-2-((1S,4aS,4bR,6aS,8R,10aS,10bR,12aS)-8-ethyl-8-hydroxy-12a-methyloctadecahydrochrysen-1-yl)-2-hydroxypropyl)-1H-pyrazole-4-carbonitrile]",100 to 1000
4,"C[C@@]1(O)CC[C@@]2(C)[C@H](CC[C@@H]3[C@@H]2CC[C@@]2(C)[C@H]3CCC[C@@H]2[C@@](C)(O)Cn2cc(C#N)cn2)C1 [Example 15, 1-((R)-2-hydroxy-2-((1S,4aS,4bR,6aR,8R,10aS,10bS,12aS)-8-hydroxy-8,10a,12a-trimethyloctadecahydrochrysen-1-yl)propyl)-1H-pyrazole-4-carbonitrile]",100 to 1000
5,"CCC[C@@]1(O)CC[C@H]2[C@@H](CC[C@@H]3[C@@H]2CC[C@@]2(C)[C@H]3CCC[C@@H]2[C@@](C)(O)Cn2cc(C#N)cn2)C1 [Example 2, 1-((R)-2-hydroxy-2-((1S,4aS,4bR,6aS,8R,10aS,10bR,12aS)-8-hydroxy-12a-methyl-8-propyloctadecahydrochrysen-1-yl)propyl)-1H-pyrazole-4-carbonitrile]",100 to 1000
6,"C[C@@]1(O)CCC[C@H]2[C@H](CC[C@@H]3[C@@H]2CC[C@@]2(C)[C@H]3CC[C@@H]2[C@@](C)(O)Cn2cc(C#N)cn2)C1 [Example 21, 1-((R)-2-hydroxy-2-((1S,3aS,3bR,5aR,7R,10aS,10bR,12aS)-7-hydroxy-7,12a-dimethyloctadecahydrocyclohepta[a]cyclopenta[f]naphthalen-1-yl)propyl)-1H-pyrazole-4-carbonitrile]",100 to 1000
7,"CCC[C@@]1(O)CC[C@H]2[C@H](CC[C@@H]3[C@@H]2CC[C@@]2(C)[C@H]3[C@H](C)CC[C@@H]2[C@@](C)(O)Cn2cc(C#N)cn2)C1 (single isomer, unassigned) [Example 34]",< 100
8,"C[C@]1(O)CCC2=CC[C@H]3[C@@H]4CC[C@H]([C@](C)(O)Cn5cc(C#N)cn5)[C@@]4(C)CC[C@@H]3[C@@]2(C)CC1 [Example 18, 1-((S)-2-hydroxy-2-((1S,3aS,3bS,8S,10aR,10bS,12aS)-8-hydroxy-8,10a,12a-trimethyl-1,2,3,3a,3b,4,6,7,8,9,10,10a,10b,11,12,12a-hexadecahydrocyclohepta[a]cyclopenta[f]naphthalen-1-yl)propyl)-1H-pyrazole-4-carbonitrile]",100 to 1000
9,"CCC[C@@]1(O)CC[C@@]2(C)[C@@H](CC[C@@H]3[C@@H]2CC[C@@]2(C)[C@H]3CCC[C@@H]2[C@@](C)(O)Cn2cc(C#N)cn2)C1 [Example 17, 1-((R)-2-hydroxy-2-((1S,4aS,4bR,6aS,8R,10aS,10bS,12aS)-8-hydroxy-10a,12a-dimethyl-8-propyloctadecahydrochrysen-1-yl)propyl)-1H-pyrazole-4-carbonitrile]",≥ 1000
10,"COC[C@@]1(O)CC[C@H]2[C@H](CC[C@@H]3[C@@H]2CC[C@@]2(C)[C@H]3[C@H](C)CC[C@@H]2[C@@](C)(O)Cn2cc(C#N)cn2)C1 (single isomer, unassigned) [Example 32]",< 100
11,"CCC[C@@]1(O)CC[C@H]2[C@@H](CC[C@@H]3[C@@H]2CC[C@@]2(C)[C@H]3CCC[C@@H]2[C@](C)(O)Cn2cc(C#N)cn2)C1 [Example 1, 1-((S)-2-hydroxy-2-((1S,4aS,4bR,6aS,8R,10aS,10bR,12aS)-8-hydroxy-12a-methyl-8-propyloctadecahydrochrysen-1-yl)propyl)-1H-pyrazole-4-carbonitrile]",100 to 1000
12,"CCC[C@@]1(O)CC[C@H]2[C@H](CC[C@@H]3[C@@H]2CC[C@@]2(C)[C@H]3CCC[C@@H]2[C@](C)(O)Cn2cc(C#N)cn2)C1 [Example 9, 1-((S)-2-hydroxy-2-((1S,4aS,4bR,6aR,8R,10aS,10bR,12aS)-8-hydroxy-12a-methyl-8-propyloctadecahydrochrysen-1-yl)propyl)-1H-pyrazole-4-carbonitrile]",< 100
13,"C[C@@]1(O)CCC[C@H]2[C@H](CC[C@@H]3[C@@H]2CC[C@@]2(C)[C@H]3CC[C@@H]2[C@](C)(O)Cn2cc(C#N)cn2)C1 [Example 20, 1-((S)-2-hydroxy-2-((1S,3aS,3bR,5aR,7R,10aS,10bR,12aS)-7-hydroxy-7,12a-dimethyloctadecahydrocyclohepta[a]cyclopenta[f]naphthalen-1-yl)propyl)-1H-pyrazole-4-carbonitrile]",< 100
14,"C[C@H]1[C@H]2[C@@H]3CC[C@@H]4C[C@](C)(O)CC[C@@H]4[C@H]3CC[C@]2(C)[C@@H]([C@@](C)(O)Cn2cc(C#N)cn2)C[C@@H]1C [Example 27, 1-((R)-2-hydroxy-2-((1S,3S,4R,4aS,4bR,6aR,8R,10aS,10bR,12aS)-8-hydroxy-3,4,8,12a-tetramethyloctadecahydrochrysen-1-yl)propyl)-1H-pyrazole-4-carbonitrile]",< 100
15,"C[C@@H]1CC[C@H]([C@@](C)(O)Cn2cc(C#N)cn2)[C@@]2(C)CC[C@H]3[C@@H](CC[C@@H]4C[C@](C)(O)CC[C@@H]43)[C@H]12 [Example 24, 1-((R)-2-hydroxy-2-((1S,4R,4aS,4bR,6aR,8R,10aS,10bR,12aS)-8-hydroxy-4,8,12a-trimethyloctadecahydrochrysen-1-yl)propyl)-1H-pyrazole-4-carbonitrile]",< 100
16,"CC[C@@]1(O)CC[C@H]2[C@H](CC[C@@H]3[C@@H]2CC[C@@]2(C)[C@H]3CCC[C@@H]2[C@](C)(O)Cn2cc(C#N)cn2)C1 [Example 7, 1-((S)-2-((1S,4aS,4bR,6aR,8R,10aS,10bR,12aS)-8-ethyl-8-hydroxy-12a-methyloctadecahydrochrysen-1-yl)-2-hydroxypropyl)-1H-pyrazole-4-carbonitrile]",100 to 1000
17,"C[C@@H]1CC[C@H]([C@](C)(O)Cn2cc(C#N)cn2)[C@@]2(C)CC[C@H]3[C@@H](CC[C@@H]4C[C@](C)(O)CC[C@@H]43)[C@H]12 [Example 25, 1-((S)-2-hydroxy-2-((1S,4R,4aS,4bR,6aR,8R,10aS,10bR,12aS)-8-hydroxy-4,8,12a-trimethyloctadecahydrochrysen-1-yl)propyl)-1H-pyrazole-4-carbonitrile]",< 100
18,"C[C@]1(O)CC[C@@H]2CC[C@@H]3[C@H](CC[C@@]4(C)[C@H]3CC[C@@H]4[C@@](C)(O)Cn3cc(C#N)cn3)[C@@]2(C)CC1 [Example 23, 1-((R)-2-hydroxy-2-((1S,3aS,3bR,5aS,8S,10aS,10bS,12aS)-8-hydroxy-8,10a,12a-trimethyloctadecahydrocyclohepta[a]cyclopenta[f]naphthalen-1-yl)propyl)-1H-pyrazole-4-carbonitrile]",100 to 1000
